Consider 4 compounds from US6255324A, “Amino-and mercurio-substituted 4',5'-dihydropsoralens and therapeutical uses thereof” (priority 1998, dated 2001).

SMILES strings stand for the structures. Counter-ions that a name gives are not always drawn. Like-named read-outs stand apart in the source and are kept apart here. Bounds are passed on as bounds.

Experiment [1] deals with PAM 212 keratinocytes. In words: PAM 212 keratinocyte growth inhibition (photo-toxicity with UVA / dark-toxicity without light). Format: cell-based. To be noted: UVA 320-400 nm, 1.28 J/cm2, growth 4-5 days. As for the experimental part:
Representative examples of the compounds described and claimed herein were tested in this assay for biological activity and found to be potent inhibitors of cell growth. Inhibition of cell growth was rapid, dependent on concentration, and required light activation. […] A description of this assay follows.
The photobiological activity was assayed using a keratinocyte cell line grown in a monolayer culture. In this assay, PAM 212 keratinocytes were grown in Dulbecco's Modified Eagle's medium supplemented with 10% newborn calf serum in a 5% carbon dioxide incubator. Cells were inoculated into 6-well Falcon plastic culture dishes at 25,000 cells per well. After 24 hours, the medium was charged to fresh growth medium supplemented with increasing concentrations of the test compounds or the control medium. Controls and test concentrations were analyzed in triplicate.
These plates were then incubated in a 37 degree C. carbon dioxide incubator. After 30 minutes culture plates were exposed to UVA light (UVA, 320-400 nm) emitted from a bank of four BLB fluorescent light tubes (F40 BL, Sylvania) placed approximately 10 cm above the cell culture plates. The incident light on the culture plates was 2.4 mW/cm^2 as measured with an International Light UV radiometer, Model IL 442A. The cells were exposed to 1.28 J/square centimeter of UVA.
After completion of the irradiation phase, the cell culture medium was drained, the cells refed with fresh growth medium and then re-incubated in the carbon dioxide incubator to allow for cell growth. After 4-5 days of growth the culture plates were removed from the incubator and the cell culture medium was drained. The cells were detached from the plates with trypsin and counted in a Coulter Counter. For control cells or for cells treated with test compounds, cell growth was determined as a percentage of control. […] This value is shown in Table I for a variety of phototherapeutics.

Experiment [2] deals with Mycobacterium tuberculosis H37Rv. Nature of the experiment: Antituberculosis primary in vitro screen, BACTEC 460. To be noted: 12.5 μg/mL, 37° C; for inhibition at 12.5 µg/mL: Mycobacterium tuberculosis, H37RV, read-out: Anti-tubercular Activity (% inhibition). Type of experiment: cell-based, Mycobacterium tuberculosis H37Rv ATCC 27294.
The test system of experiment [3] is Aspergillus niger. Nature of the experiment: Fungicidal assay, MIC against Aspergillus niger in MSY broth. Type of experiment: cell-based. To be noted: Table II, four days at 28° C, in the dark, no unit in table (ppm levels). How it is done: The antifungal activities of compounds synthesized were measured by determining the inhibition of growth of Aspergillus niger in a standard liquid medium. The liquid growth medium is described as a solution of mineral salts and yeast extract (MSY). The MSY broth was prepared as described in ASTM G21-70, and amended with glucose (10 g/l) and yeast extract (1 g/l). An aliquot ([…]) of sterile medium was dispensed into each test well of a standard 96 well microplate (Corning No. 430247). Stock solutions of test compounds were prepared by dissolving the materials in 9:1 (v/v) solutions of acetone:methanol. Appropriate volumes of stock solutions were added to the test wells in order to achieve the desired ppm levels. Each test well (plus controls) was then inoculated with […] of a standardized suspension of Aspergillus niger. The cell suspension was prepared by suspending viable cells from a slant of potato dextrose agar into sterile, deionized water. The suspension was then adjusted to provide OD686 =0.28. This density contains approximately 2.5×10^7 CFU (colony forming units)/ml. The microplates were incubated in the dark for four days at 28° C. The optical density for each well at 686 nm was then recorded automatically using a SpectraMax 340 microplate reader (Molecular Devices Corp., Sunnyvale, Calif.). All wells were visually inspected in order to corroborate data from the instrument.
The antifungal activity was measured as minimum inhibitory concentrations or MIC of the 5'-substituted-4',5'-dihydropsoralens.

Experiment [4] has as its system Chlorella vulgaris. In words: Algicidal assay, MIC against Chlorella in modified Allen's medium. Format: cell-based. To be noted: Table III, 14 days, 26 to 28° C, no unit in table (ppm). How it is done:
To assay the activity of the 5'-substituted-4',5'-dihydropsoralens of the invention against Chlorella, the Allen method (A. A. Allen, […], Journal of Phycology, 4, 1-4) was employed. […] The minimum inhibitory concentration (MIC) of the compounds tested against the fungus Aspergillus niger using an MSY broth is shown in Table II.
Test tubes containing modified Allen's medium were treated with increasing dosages of the compound to be tested and inoculated with a suspension of algal cells. After fourteen days of incubation, algal growth was rated as positive or negative. The minimum inhibitory concentration (MIC) of the compound is the smallest dosage showing negative algal growth.
The apparatus required consisted of sterilized test tubes, 18-150 mm and an incubator, capable of a constant (±2° C.) temperature within 26 to 28° C. The following procedure was used:
(1) Stock solutions (g/200 g deionized water each) were generated with: K2 HPO4, 1.50 g; MgSO4, 7H2 O, 1.50 g; Na2 CO3, 0.80 g; CaCl2 2H2 O, 0.50 g; Na2 SiO3 9H2 O, 1.16 g, and Citric acid, 1.20 g.
(3) The modified Allen's medium was prepared in a volumetric flask by the addition of 1.5 g NaNO3, 5.0 mL stock solution K2 HPO4, 5.0 mL stock solution MgSO4 -- 7H2 O, 5.0 mL Stock solution Na2 CO3, 10.0 mL stock solution CaCl2 2H2 O, 10.0 mL stock solution Na2 SiO3 9H2 O, 1.0 mL stock solution Citric acid and 1.0 mL stock solution PIV metal with enough deionized water to make 1000 mL of medium (Allen, 1968). The pH was adjusted to 7.8 and 5 mL of medium is added to each test tube. The tubes were sterilized in the autoclave for 20 minutes at 15 psi at 121° C. The test tubes were allowed to cool to 45-50° C. before adding the test compound and the inoculurn to the medium.
(4) The inoculum was a cell suspension from a 14-day-old culture of Chlorella vulgaris (UTEX 26, University of Texas) that was grown in modified Allen's medium.
The concentration of the stock solution in water or acetone of the compound to be tested is dependent on the largest dose required to be tested. Dilutions of the stock solution were made so that 100 μL of the stock solution of the corresponiding dilution was added per test tube. 100 μL of the solvent was added to the control to prepare the stock solution.
The inoculation consists of the addition of 100 μL of inoculurn per test tube.
The incubation of the control test tube and the test tubes containing compound and inoculum occurred in an incubator set between 26 to 28° C., with the temperature not varying more than ±2° C. Light was provided by plant growth fluorescent tubes and the test tubes were allowed to stand in the incubator for 14 days.
Rating of the test tubes containing different dosages of the compound will be positive or negative. […] If the medium in the rubes remains colorless, a negative (not contaminated) rating is given. The control is always positive. The minimum inhibitory concentration (MIC) of the compound is determined to be the smallest dosage showing negative algal growth.

Experiment [5] deals with PAM 212 keratinocytes. Nature of the experiment: PAM 212 keratinocyte growth inhibition (photo-toxicity with UVA / dark-toxicity without light). Format: cell-based.
The mark [6] stands for this setting: Mus musculus, PAM212, light or radiation study.

By IC50 is commonly meant the concentration that gives 50% inhibition. Low values mean greater potency in that assay, high ones weaker potency in that assay. For orientation: inhibition means the share of the control response that was lost under treatment. Consider `Cc1cc(=O)oc2c(C)c3c(cc12)CC(CI)O3` (centres unmarked) [R = H, T = I, 4,8-Dimethyl-5'-iodomethyl-4',5'-dihydropsoralen], for which the IC50 in experiment [1] (setting [6]) stood at 1.1 µM. Besides, the inhibition at 12.5 µg/mL in experiment [2] was determined as 24%.
The matching figures for `Cc1cc(=O)oc2c(C)c3c(cc12)CC(CN(C)C)O3` (centres unmarked) [R = H, T = dimethyl amino iodide salt, 4,8-Dimethyl-5'-[(N,N-dimethylamino)methyl]-4',5'-dihydropsoralen Hydroiodide Salt]: 0.1 µM and 4%.
The like results for `Cc1c(I)c(=O)oc2c(C)c3c(cc12)CC(CI)O3` (centres unmarked) [R = I, T = I, 3-Iodo-4,8-dimethyl-5'-iodomethyl-4',5'-dihydropsoralen] were, in that order, 4.2 µM and 17%.
For the compound `[I][Hg][CH2]C1Cc2ccccc2O1` (centres unmarked) [T = HgI, 2-Iodomercurimethyl-2,3-dihydrobenzofuran], the results for the IC50 in experiment [1] and in experiment [5] were 5.7 µM and 12 µM, respectively. In addition, the MIC is less than 8 in experiment [3] and 10 in experiment [4]. In addition, the “Anti-tubercular Activity (% inhibition)” value in experiment [2] is 99%.
